In PubChem BioAssay (NCI):
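The compound was tested at five concentrations on cells cultured in 96-well plates, with a 48-hour exposure period. GI50 = concentration required for 50% inhibition of growth. Definition used: TGI = concentration required for complete inhibition of growth.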

Legend:
Experiment in all cases: growth of human tumour cells (NCI), 48 h
[1] = tested on: HOP-62 NSCLC
[2] = tested on: HL-60(TB) leukemia
[3] = tested on: K-562 leukemia
[4] = tested on: MALME-3M melanoma
[5] = tested on: MOLT-4 leukemia
[6] = tested on: CCRF-CEM leukemia
[7] = tested on: PC-3 prostate
[8] = tested on: MCF7 breast
[9] = tested on: HCT-15 colon
[10] = tested on: UACC-62 melanoma
[11] = tested on: HCT-116 colon
[12] = tested on: CAKI-1 renal
[13] = tested on: DU-145 prostate
[14] = tested on: SF-268 CNS
[15] = tested on: SK-MEL-5 melanoma
[16] = tested on: NCI-H522 lung
[17] = tested on: SF-539 CNS
[18] = tested on: KM12 colon
[19] = tested on: SK-MEL-28 melanoma
[20] = tested on: A498 renal
[21] = tested on: SR leukemia
[22] = tested on: UACC-257 melanoma
[23] = tested on: RXF 393 renal
[24] = tested on: OVCAR-3 ovarian
[25] = tested on: UO-31 renal
[26] = tested on: SW-620 colon
[27] = tested on: MDA-MB-231 breast
[28] = tested on: SK-OV-3 ovarian
[29] = tested on: SNB-75 CNS
[30] = tested on: ACHN renal
[31] = tested on: HOP-92 NSCLC
[32] = tested on: OVCAR-8 ovarian
[33] = tested on: MDA-MB-468 breast
[34] = tested on: BT-549 breast
[35] = tested on: SN12C renal
[36] = tested on: HT29 colon
[37] = tested on: NCI-H226 lung
[38] = tested on: RPMI-8226 leukemia
[39] = tested on: HCC-2998 colon
[40] = tested on: SK-MEL-2 melanoma
[41] = tested on: SNB-19 CNS
[42] = tested on: U251 CNS
[43] = tested on: IGROV1 ovarian
[44] = tested on: MDA-MB-435
[45] = tested on: OVCAR-5 ovarian
[46] = tested on: OVCAR-4 ovarian
[47] = tested on: COLO 205 colon
[48] = tested on: T-47D breast
[49] = tested on: TK-10 renal
[50] = tested on: NCI-H460 lung
[51] = tested on: EKVX NSCLC
[52] = tested on: SF-295 CNS
[53] = tested on: HS 578T breast
[54] = tested on: LOX IMVI melanoma
[55] = tested on: NCI-H23 lung
[56] = tested on: 786-0 renal
[57] = tested on: A549 NSCLC
[58] = tested on: M14 melanoma

Q: For `COc1cc(C2C(C(=O)OCc3ccccc3)=C(C)Nc3nc4ccccc4n32)cc(OC)c1OC` (stereo unspecified), which GI50 [1] is on record?
A: The GI50 was 2.75 µM.

Q: And the TGI [1]?
A: Its TGI is 9.15 µM.

Q: What about the GI50 [2] of the same compound?
A: Its GI50 is 7.02 µM.

Q: And the TGI [2]?
A: The TGI was 76.7 µM.

Q: What about the GI50 [3] of the same compound?
A: The GI50 was 3.38 µM.

Q: And the TGI [3]?
A: Its TGI is > 100 µM.

Q: What about the GI50 [4] of the same compound?
A: The GI50 was 1.74 µM.

Q: What about the TGI [4] of the same compound?
A: Its TGI is 5.71 µM.

Q: And the GI50 [5]?
A: Its GI50 is 11.3 µM.

Q: What about the TGI [5] of the same compound?
A: The TGI was > 100 µM.

Q: And the GI50 [6]?
A: Its GI50 is 7.01 µM.

Q: What about the TGI [6] of the same compound?
A: Its TGI is > 100 µM.

Q: What about the GI50 [7] of the same compound?
A: Its GI50 is 6.63 µM.

Q: And the TGI [7]?
A: Its TGI is > 100 µM.

Q: And the GI50 [8]?
A: Its GI50 is 3.56 µM.

Q: What about the TGI [8] of the same compound?
A: The TGI was 17.8 µM.

Q: What about the GI50 [9] of the same compound?
A: The GI50 was 5.91 µM.

Q: And the TGI [9]?
A: Its TGI is > 100 µM.

Q: And the GI50 [10]?
A: Its GI50 is 2.15 µM.

Q: And the TGI [10]?
A: The TGI was 8.07 µM.

Q: And the GI50 [11]?
A: Its GI50 is 3.25 µM.

Q: What about the TGI [11] of the same compound?
A: Its TGI is 10.5 µM.

Q: What about the GI50 [12] of the same compound?
A: Its GI50 is 2.45 µM.

Q: And the TGI [12]?
A: The TGI was 11.4 µM.

Q: And the GI50 [13]?
A: The GI50 was 7.06 µM.

Q: And the TGI [13]?
A: Its TGI is 55.8 µM.

Q: What about the GI50 [14] of the same compound?
A: The GI50 was 3.22 µM.

Q: What about the TGI [14] of the same compound?
A: Its TGI is 19 µM.

Q: What about the GI50 [15] of the same compound?
A: The GI50 was 4.41 µM.

Q: What about the TGI [15] of the same compound?
A: Its TGI is 19.5 µM.

Q: What about the GI50 [16] of the same compound?
A: The GI50 was 2.64 µM.

Q: What about the TGI [16] of the same compound?
A: The TGI was 10.3 µM.

Q: And the GI50 [17]?
A: The GI50 was 1.98 µM.

Q: And the TGI [17]?
A: Its TGI is 4.37 µM.

Q: What about the GI50 [18] of the same compound?
A: Its GI50 is 3.75 µM.

Q: What about the TGI [18] of the same compound?
A: The TGI was 27.4 µM.

Q: What about the GI50 [19] of the same compound?
A: Its GI50 is 5.46 µM.

Q: What about the TGI [19] of the same compound?
A: The TGI was 59 µM.

Q: What about the GI50 [20] of the same compound?
A: Its GI50 is 1.88 µM.

Q: What about the TGI [20] of the same compound?
A: Its TGI is 4.37 µM.

Q: And the GI50 [21]?
A: The GI50 was 3.93 µM.

Q: And the TGI [21]?
A: The TGI was > 100 µM.

Q: And the GI50 [22]?
A: The GI50 was 11.2 µM.

Q: And the TGI [22]?
A: Its TGI is 66.3 µM.

Q: And the GI50 [23]?
A: The GI50 was 1.4 µM.

Q: And the TGI [23]?
A: Its TGI is 4.71 µM.

Q: What about the GI50 [24] of the same compound?
A: The GI50 was 2.67 µM.

Q: What about the TGI [24] of the same compound?
A: The TGI was 7.56 µM.

Q: And the GI50 [25]?
A: Its GI50 is 2.11 µM.

Q: And the TGI [25]?
A: The TGI was 5.27 µM.

Q: And the GI50 [26]?
A: The GI50 was 6.23 µM.

Q: What about the TGI [26] of the same compound?
A: Its TGI is > 100 µM.

Q: What about the GI50 [27] of the same compound?
A: Its GI50 is 1.97 µM.

Q: And the TGI [27]?
A: Its TGI is 4.68 µM.

Q: And the GI50 [28]?
A: The GI50 was 2.46 µM.

Q: What about the TGI [28] of the same compound?
A: Its TGI is 5.86 µM.

Q: And the GI50 [29]?
A: The GI50 was 1 µM.

Q: What about the TGI [29] of the same compound?
A: The TGI was 3.22 µM.

Q: What about the GI50 [30] of the same compound?
A: Its GI50 is 2.97 µM.

Q: And the TGI [30]?
A: Its TGI is 9.01 µM.

Q: What about the GI50 [31] of the same compound?
A: The GI50 was 2.12 µM.

Q: And the TGI [31]?
A: The TGI was 6.61 µM.

Q: What about the GI50 [32] of the same compound?
A: The GI50 was 3.73 µM.

Q: And the TGI [32]?
A: Its TGI is 14.4 µM.

Q: What about the GI50 [33] of the same compound?
A: The GI50 was 2.11 µM.

Q: And the TGI [33]?
A: Its TGI is 5.83 µM.

Q: What about the GI50 [34] of the same compound?
A: Its GI50 is 4.09 µM.

Q: What about the TGI [34] of the same compound?
A: Its TGI is 18.1 µM.

Q: And the GI50 [35]?
A: Its GI50 is 3.3 µM.

Q: And the TGI [35]?
A: Its TGI is 21.2 µM.

Q: What about the GI50 [36] of the same compound?
A: Its GI50 is 4.35 µM.

Q: And the TGI [36]?
A: The TGI was 22.3 µM.

Q: And the GI50 [37]?
A: The GI50 was 2.19 µM.

Q: And the TGI [37]?
A: Its TGI is 6.81 µM.

Q: What about the GI50 [38] of the same compound?
A: The GI50 was 6.96 µM.

Q: And the TGI [38]?
A: Its TGI is > 100 µM.

Q: What about the GI50 [39] of the same compound?
A: Its GI50 is 14.4 µM.

Q: And the TGI [39]?
A: Its TGI is > 100 µM.

Q: And the GI50 [40]?
A: Its GI50 is 2.61 µM.

Q: What about the TGI [40] of the same compound?
A: Its TGI is 7.76 µM.

Q: And the GI50 [41]?
A: Its GI50 is 3.65 µM.

Q: And the TGI [41]?
A: Its TGI is 15.8 µM.

Q: What about the GI50 [42] of the same compound?
A: Its GI50 is 3.25 µM.

Q: What about the TGI [42] of the same compound?
A: Its TGI is 11.3 µM.

Q: And the GI50 [43]?
A: The GI50 was 4.42 µM.

Q: And the TGI [43]?
A: Its TGI is 30.5 µM.

Q: What about the GI50 [44] of the same compound?
A: Its GI50 is 2.26 µM.

Q: What about the TGI [44] of the same compound?
A: Its TGI is 6.25 µM.

Q: And the GI50 [45]?
A: Its GI50 is 7.88 µM.

Q: And the TGI [45]?
A: The TGI was 38.3 µM.

Q: And the GI50 [46]?
A: Its GI50 is 2.41 µM.

Q: And the TGI [46]?
A: Its TGI is 7.87 µM.

Q: What about the GI50 [47] of the same compound?
A: The GI50 was 12.5 µM.

Q: What about the TGI [47] of the same compound?
A: Its TGI is > 100 µM.

Q: And the GI50 [48]?
A: The GI50 was 3.15 µM.

Q: What about the TGI [48] of the same compound?
A: Its TGI is 14.5 µM.

Q: What about the GI50 [49] of the same compound?
A: The GI50 was 2.15 µM.

Q: And the TGI [49]?
A: The TGI was 5.4 µM.

Q: What about the GI50 [50] of the same compound?
A: The GI50 was 3.87 µM.

Q: And the TGI [50]?
A: The TGI was 19.6 µM.

Q: What about the GI50 [51] of the same compound?
A: Its GI50 is 10.8 µM.

Q: What about the TGI [51] of the same compound?
A: The TGI was 56.2 µM.

Q: What about the GI50 [52] of the same compound?
A: Its GI50 is 3.35 µM.

Q: What about the TGI [52] of the same compound?
A: The TGI was 13.2 µM.

Q: What about the GI50 [53] of the same compound?
A: Its GI50 is 2.25 µM.

Q: And the TGI [53]?
A: The TGI was 7.65 µM.

Q: And the GI50 [54]?
A: Its GI50 is 3.43 µM.

Q: What about the TGI [54] of the same compound?
A: Its TGI is 12.9 µM.

Q: And the GI50 [55]?
A: The GI50 was 7 µM.

Q: What about the TGI [55] of the same compound?
A: The TGI was 29 µM.

Q: What about the GI50 [56] of the same compound?
A: Its GI50 is 1.8 µM.

Q: And the TGI [56]?
A: The TGI was 3.56 µM.

Q: And the GI50 [57]?
A: The GI50 was 3.28 µM.

Q: What about the TGI [57] of the same compound?
A: Its TGI is 11.4 µM.

Q: And the GI50 [58]?
A: Its GI50 is 6.01 µM.

Q: What about the TGI [58] of the same compound?
A: Its TGI is 71 µM.
